From patent publication US6403652B1, “Method and composition” (Colgate-Palmolive Company, priority 2000, dated 2002)
In brackets after ≈: the same amount, converted by molar mass. Where two headings read alike, the source gives them in different places. Blank lines part the entries; values can stand above or below the compound they belong to.

Key:
Format in all cases: cell-based
Staphylococcus Aureus = assay: MIC by Broth Dilution Method against Staphylococcus Aureus; conditions: 37° C., visible growth
Procedure: Antimicrobial activity of several compounds was measured by determining the minimum inhibitory concentration (MIC). MIC is defined as the lowest concentration of an antimicrobial agent that will inhibit the growth of a microorganism and is usually expressed as ppm (μg/mL). MIC was determined by the Broth Dilution Method. To determine MIC a series of culture tubes was prepared, each tube containing the growth medium (Broth) with a decreasing concentration of the antimicrobial agent. The tubes were then inoculated with the test organism and incubated at 37° C. After incubation, tubes were visually examined for growth as indicated by turbidity. The lowest concentration that prevented visible growth is the MIC.

[1] = MIC in multiwell plate broth dilution, isolate SA22; conditions: Staphylococcus aureus
Procedure: (§1) 1. The following Staphylococcus Aureus isolates were tested:
(§2) 2. 2-t-butyl-5-(4-t-butylphenyl)-phenol (DTBBP) was dissolved in ethanol to a concentration of 1000 μg/mL. Higher concentrations could not be tested due to the formation of precipitate in the broth when higher concentrations were attempted.
(§3) 3. 100 μl of the 32 μg/ml solution added to column 12 of the multiwell plates, 50 μl M—H broth to each of the other columns. 50 μl removed from 12 to 11 for 1:1 dilution, continued to column 2. 50 μl removed from column 2 and discarded. Column 1 contained no drug. To control for the amount of ethanol added to each well, additional wells were set up as described above without DTBBP but with the same amount of ethanol as the test wells.
(§4) 4. 50 μl bacteria added to each well going from column 1 to column 12. All isolates run in duplicate with and without DTBBP.
(§5) 5. Addition of 50 μl bacteria to 50 μl drug dilutes both 1:1 for a final bacterial density of 5×10^5/ml and drug concentrations of:
(§6) 6. Incubated overnight at 37° C.

[2] = tested on: Staphylococcus Aureus isolate SA76 (resistant to methicillin, azithromycin, clarithromycin, erythromycin, ciprofloxacin); assay: MIC in multiwell plate broth dilution, isolate SA76
Procedure: as §1, §2, §3, §4, §5, §6

[3] = tested on: Staphylococcus Aureus isolate SA100 (resistant to methicillin only); assay: MIC in multiwell plate broth dilution, isolate SA100
Procedure: as §1, §2, §3, §4, §5, §6

[4] = tested on: Staphylococcus Aureus isolate SA6 (susceptible to all drugs); assay: MIC in multiwell plate broth dilution, isolate SA6
Procedure: as §1, §2, §3, §4, §5, §6

[5] = tested on: Staphylococcus Aureus isolate SA15 (susceptible); assay: MIC in multiwell plate broth dilution, isolate SA15
Procedure: as §1, §2, §3, §4, §5, §6

[6] = tested on: Staphylococcus Aureus isolate SA124 (susceptible); assay: MIC in multiwell plate broth dilution, isolate SA124
Procedure: as §1, §2, §3, §4, §5, §6

Structure (SMILES): CCCCCCCCc1ccc(O)c(C(C)(C)C)c1 [2-t-butyl-4-n-octylphenol]
MIC (Staphylococcus Aureus): < 10 mg/L

MIC (Staphylococcus Aureus): < 1 mg/L
MIC ([1]; isolate SA22, 24 hr, read-out: DTBBP MIC (24 hr)): 2 mg/L (≈ 7.08 µM)
MIC ([1]; isolate SA22, 48 hr, read-out: DTBBP MIC (48 hr)): 2 mg/L (≈ 7.08 µM)
MIC ([2]; isolate SA76, 24 hr, read-out: DTBBP MIC (24 hr)): 2 mg/L (≈ 7.08 µM)
MIC ([2]; isolate SA76, 48 hr, read-out: DTBBP MIC (48 hr)): 4 mg/L (≈ 14.2 µM)
MIC ([3]; isolate SA100, 24 hr, read-out: DTBBP MIC (24 hr)): 4 mg/L (≈ 14.2 µM)
MIC ([3]; isolate SA100, 48 hr, read-out: DTBBP MIC (48 hr)): 4 mg/L (≈ 14.2 µM)
MIC ([4]; isolate SA6, 24 hr, read-out: DTBBP MIC (24 hr)): 2 mg/L (≈ 7.08 µM)
MIC ([4]; isolate SA6, 48 hr, read-out: DTBBP MIC (48 hr)): 4 mg/L (≈ 14.2 µM)
MIC ([5]; isolate SA15, 24 hr, read-out: DTBBP MIC (24 hr)): 2 mg/L (≈ 7.08 µM)
MIC ([5]; isolate SA15, 48 hr, read-out: DTBBP MIC (48 hr)): 4 mg/L (≈ 14.2 µM)
MIC ([6]; isolate SA124, 24 hr, read-out: DTBBP MIC (24 hr)): 2 mg/L (≈ 7.08 µM)
MIC ([6]; isolate SA124, 48 hr, read-out: DTBBP MIC (48 hr)): 4 mg/L (≈ 14.2 µM)
Structure (SMILES): CC(C)(C)c1ccc(-c2ccc(C(C)(C)C)c(O)c2)cc1 [DTBBP, 2-t-butyl-5-(4-t-butylphenyl)-phenol]

MIC (Staphylococcus Aureus): < 10 mg/L
Structure (SMILES): CC(C)(C)c1ccc(C2CCC(C(C)(C)C)CC2)cc1O (stereo not shown) [2-t-butyl-5-(4-t-butylcyclohexyl)-phenol]

MIC (Staphylococcus Aureus): < 10 mg/L
Structure (SMILES): CC(C)(C)c1cc(C2CCCCC2)ccc1O [2-t-butyl-4-cyclohexylphenol]
